According to US11524968B2, “Heterocyclic compound as a protein kinase inhibitor” (HK inno.N Corporation, priority 2017, dated 2022):

Target: JAK1 (Homo sapiens (Human), UniProt P23458)
Assay: Analysis of JAK1 activity inhibition ability (ADP-Glo Kinase Assay)
Assay type: biochemical
Conditions: JAK1 enzyme, ADP-Glo luminescence, ATP 250 uM, IRS-itide substrate, 30° C. 40 minutes; read-out: IC50
Procedure, shortened: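 ADP-Glo luminescence read-out of ADP production, with IC50 taken as the concentration halving JAK1 activity relative to control. Enzyme was incubated 40 min at 30 °C with compound, IRS-itide (40 ng/mL) and ATP (250 uM), concentrations as prepared in pH 7.5 Tris-HCl/MgCl2/BSA/DTT buffer.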

JAK1, sequence (P23458 whole entry): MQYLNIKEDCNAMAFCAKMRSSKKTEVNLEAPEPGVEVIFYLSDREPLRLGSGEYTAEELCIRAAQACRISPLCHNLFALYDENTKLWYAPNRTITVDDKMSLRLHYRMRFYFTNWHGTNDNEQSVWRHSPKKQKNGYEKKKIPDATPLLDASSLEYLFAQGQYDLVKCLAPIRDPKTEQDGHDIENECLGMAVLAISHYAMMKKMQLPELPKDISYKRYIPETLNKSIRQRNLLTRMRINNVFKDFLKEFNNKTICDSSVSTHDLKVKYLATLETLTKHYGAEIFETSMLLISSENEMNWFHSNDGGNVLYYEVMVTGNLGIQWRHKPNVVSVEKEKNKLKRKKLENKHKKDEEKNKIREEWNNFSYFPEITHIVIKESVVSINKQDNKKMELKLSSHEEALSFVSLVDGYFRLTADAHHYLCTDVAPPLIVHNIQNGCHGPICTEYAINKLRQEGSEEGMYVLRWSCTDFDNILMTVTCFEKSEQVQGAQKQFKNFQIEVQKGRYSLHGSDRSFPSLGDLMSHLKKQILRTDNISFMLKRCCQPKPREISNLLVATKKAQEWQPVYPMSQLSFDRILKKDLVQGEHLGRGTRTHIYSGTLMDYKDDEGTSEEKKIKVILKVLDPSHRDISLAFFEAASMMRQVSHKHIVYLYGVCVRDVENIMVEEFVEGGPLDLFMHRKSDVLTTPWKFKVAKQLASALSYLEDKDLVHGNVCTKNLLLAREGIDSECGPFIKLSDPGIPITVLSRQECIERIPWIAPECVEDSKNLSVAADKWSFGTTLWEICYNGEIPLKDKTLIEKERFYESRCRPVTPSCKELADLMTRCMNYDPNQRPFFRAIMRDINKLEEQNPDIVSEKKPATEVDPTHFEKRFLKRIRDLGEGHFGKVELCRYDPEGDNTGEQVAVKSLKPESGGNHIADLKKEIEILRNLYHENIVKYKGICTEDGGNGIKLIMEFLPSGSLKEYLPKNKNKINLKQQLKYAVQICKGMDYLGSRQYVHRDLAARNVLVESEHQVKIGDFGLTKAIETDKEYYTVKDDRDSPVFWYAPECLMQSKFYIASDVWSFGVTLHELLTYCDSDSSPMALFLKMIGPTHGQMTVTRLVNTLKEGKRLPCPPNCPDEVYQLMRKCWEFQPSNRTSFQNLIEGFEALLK

Compound	IC50
Cc1nn(CCC#N)c(C)c1-c1cc(NC(=O)C2CC2)nc2[nH]ccc12 [Example 480, N-(4-(1-(2-cyanoethyl)-3,5-dimethyl-1H-pyrazol-4-yl)-1H-pyrrolo[2,3-b]pyridin-6-yl)cyclopropanecarboxamide]	20 to 200 nM
O=C(Nc1cc(-c2cn(Cc3ccccc3)nn2)c2cc[nH]c2n1)C1CC1 [Example 481, N-(4-(1-benzyl-1H-1,2,3-triazol-4-yl)-1H-pyrrolo[2,3-b]pyridin-6-yl)cyclopropanecarboxamide]	20 to 200 nM
N#Cc1ccc(Cn2cc(-c3nc(NC(=O)C4CC4)nc4[nH]ccc34)cn2)cn1 [Example 482, N-(4-(1-((6-cyanopyridin-3-yl)methyl)-1H-pyrazol-4-yl)-7H-pyrrolo[2,3-d]pyrimidin-2-yl)cyclopropanecarboxamide]	> 200 nM
N#CCCn1ccc(-c2cc(NC(=O)C3CC3)nc3[nH]ccc23)c1 [Example 483, N-(4-(1-(2-cyanoethyl)-1H-pyrrol-3-yl)-1H-pyrrolo[2,3-b]pyridin-6-yl)cyclopropanecarboxamide]	< 20 nM
O=C(Nc1cc(C2=CCN(CCN3CCOCC3)C2)c2cc[nH]c2n1)C1CC1 [Example 484, N-(4-(1-(2-morpholinoethyl)-2,5-dihydro-1H-pyrrol-3-yl)-1H-pyrrolo[2,3-b]pyridin-6-yl)cyclopropanecarboxamide]	> 200 nM
N#CCCN1CC=C(c2cc(NC(=O)C3CC3)nc3[nH]ccc23)C1 [Example 485, N-(4-(1-(2-cyanoethyl)-2,5-dihydro-1H-pyrrol-3-yl)-1H-pyrrolo[2,3-b]pyridin-6-yl)cyclopropanecarboxamide]	20 to 200 nM
N#CCCN1CC=C(c2cc(NC(=O)C3CC3)nc3[nH]ccc23)CC1 [Example 486, N-(4-(1-(2-cyanoethyl)-1,2,3,6-tetrahydropyridin-4-yl)-1H-pyrrolo[2,3-b]pyridin-6-yl)cyclopropanecarboxamide]	20 to 200 nM
CC1(CN2CC=C(c3cc(NC(=O)C4CC4)nc4[nH]ccc34)CC2)COC1 [Example 487, N-(4-(1-((3-methyloxetan-3-yl)methyl)-1,2,3,6-tetrahydropyridin-4-yl)-1H-pyrrolo[2,3-b]pyridin-6-yl)cyclopropanecarboxamide]	> 200 nM
O=C(Nc1cc(C2=CCN(Cc3ccns3)CC2)c2cc[nH]c2n1)C1CC1 [Example 488, N-(4-(1-(isothiazol-5-ylmethyl)-1,2,3,6-tetrahydropyridin-4-yl)-1H-pyrrolo[2,3-b]pyridin-6-yl)cyclopropanecarboxamide]	< 20 nM
O=C(Nc1cc(C2=CCN(CC3CC3(F)F)CC2)c2cc[nH]c2n1)C1CC1 (stereo not drawn) [Example 489, N-(4-(1-((2,2-difluorocyclopropyl)methyl)-1,2,3,6-tetrahydropyridin-4-yl)-1H-pyrrolo[2,3-b]pyridin-6-yl)cyclopropanecarboxamide]	20 to 200 nM
N#CC1CC(N2CC=C(c3cc(NC(=O)C4CC4)nc4[nH]ccc34)CC2)C1 (stereo not drawn) [Example 490, N-(4-(1-(3-cyanocyclobutyl)-1,2,3,6-tetrahydropyridin-4-yl)-1H-pyrrolo[2,3-b]pyridin-6-yl)cyclopropanecarboxamide]	20 to 200 nM
O=C(Nc1cc(C2=CCC(NC3CCN(C(=O)c4cc(F)cc(F)c4)CC3)CC2)c2cc[nH]c2n1)C1CC1 (stereo not drawn) [Example 491, N-(4-(4-((1-(3,5-difluorobenzoyl)piperidin-4-yl)amino)cyclohex-1-en-1-yl)-1H-pyrrolo[2,3-b]pyridin-6-yl)cyclopropanecarboxamide]	> 200 nM
O=C(Nc1cc(C2=CCC(NC3CCN(C(=O)C4CCCCC4)CC3)CC2)c2cc[nH]c2n1)C1CC1 (stereo not drawn) [Example 492, N-(4-(4-((1-(cyclohexanecarbonyl)piperidin-4-yl)amino)cyclohex-1-en-1-yl)-1H-pyrrolo[2,3-b]pyridin-6-yl)cyclopropanecarboxamide]	> 200 nM
O=C(Nc1cc(C2=CCC(NC3CCN(C(=O)c4ccnc(F)c4)CC3)CC2)c2cc[nH]c2n1)C1CC1 (stereo not drawn) [Example 493, N-(4-(4-((1-(2-fluoroisonicotinoyl)piperidin-4-yl)amino)cyclohex-1-en-1-yl)-1H-pyrrolo[2,3-b]pyridin-6-yl)cyclopropanecarboxamide]	20 to 200 nM
O=C(Nc1cc(C2=CCC(NC3CCN(C(=O)c4ccc([N+](=O)[O-])cc4)CC3)CC2)c2cc[nH]c2n1)C1CC1 (stereo not drawn) [Example 494, N-(4-(4-((1-(4-nitrobenzoyl)piperidin-4-yl)amino)cyclohex-1-en-1-yl)-1H-pyrrolo[2,3-b]pyridin-6-yl)cyclopropanecarboxamide]	> 200 nM
O=C(Nc1cc(C2=CCC(NC3CN(C(=O)c4cc(F)cc(F)c4)C3)CC2)c2cc[nH]c2n1)C1CC1 (stereo not drawn) [Example 495, N-(4-(4-((1-(3,5-difluorobenzoyl)azetidin-3-yl)amino)cyclohex-1-en-1-yl)-1H-pyrrolo[2,3-b]pyridin-6-yl)cyclopropanecarboxamide]	20 to 200 nM
O=C(Nc1cc(C2=CCC(NC3CN(C(=O)c4ccnc(F)c4)C3)CC2)c2cc[nH]c2n1)C1CC1 (stereo not drawn) [Example 496, N-(4-(4-((1-(2-fluoroisonicotinoyl)azetidin-3-yl)amino)cyclohex-1-en-1-yl)-1H-pyrrolo[2,3-b]pyridin-6-yl)cyclopropanecarboxamide]	> 200 nM
COc1cc(C(=O)N2CC(NC3CC=C(c4cc(NC(=O)C5CC5)nc5[nH]ccc45)CC3)C2)ccn1 (stereo not drawn) [Example 497, N-(4-(4-((1-(2-methoxyisonicotinoyl)azetidin-3-yl)amino)cyclohex-1-en-1-yl)-1H-pyrrolo[2,3-b]pyridin-6-yl)cyclopropanecarboxamide]	20 to 200 nM
O=C(Nc1cc(-c2ccc(NC3CCN(C(=O)Nc4ccccc4)CC3)c(F)c2)c2cc[nH]c2n1)C1CC1 [Example 498, 4-((4-(6-(cyclopropanecarboxamido)-1H-pyrrolo[2,3-b]pyridin-4-yl)-2-fluorophenyl)amino)-N-phenylpiperidine-1-carboxamide]	20 to 200 nM
O=C(Nc1cc(-c2ccc(NC3CCN(C(=O)c4cc(F)cc(F)c4)CC3)c(F)c2)c2cc[nH]c2n1)C1CC1 [Example 499, N-(4-(4-((1-(3,5-difluorobenzoyl)piperidin-4-yl)amino)-3-fluorophenyl)-1H-pyrrolo[2,3-b]pyridin-6-yl)cyclopropanecarboxamide]	> 200 nM
O=C(Nc1cc(-c2ccc(NC3CCN(C(=O)c4ccnc(F)c4)CC3)c(F)c2)c2cc[nH]c2n1)C1CC1 [Example 500, N-(4-(3-fluoro-4-((1-(2-fluoroisonicotinoyl)piperidin-4-yl)amino)phenyl)-1H-pyrrolo[2,3-b]pyridin-6-yl)cyclopropanecarboxamide]	> 200 nM
O=C(Nc1cc(-c2ccc(NC3CCN(C(=O)Nc4ccc(F)cc4F)CC3)c(F)c2)c2cc[nH]c2n1)C1CC1 [Example 501, 4-((4-(6-(cyclopropanecarboxamido)-1H-pyrrolo[2,3-b]pyridin-4-yl)-2-fluorophenyl)amino)-N-(2,4-difluorophenyl)piperidine-1-carboxamide]	20 to 200 nM
C[C@H]1CC(Nc2ccc(-c3cc(NC(=O)C4CC4)nc4[nH]ccc34)cc2)CCN1C(=O)c1cc(F)cc(F)c1 (stereo partly drawn) [Example 502, N-(4-(4-(((2S)-1-(3,5-difluorobenzoyl)-2-methylpiperidin-4-yl)amino)phenyl)-1H-pyrrolo[2,3-b]pyridin-6-yl)cyclopropanecarboxamide]	> 200 nM
C[C@H]1CC(Nc2ccc(-c3cc(NC(=O)C4CC4)nc4[nH]ccc34)cc2)CCN1C(=O)c1ccnc(F)c1 (stereo partly drawn) [Example 503, N-(4-(4-(((2S)-1-(2-fluoroisonicotinoyl)-2-methylpiperidin-4-yl)amino)phenyl)-1H-pyrrolo[2,3-b]pyridin-6-yl)cyclopropanecarboxamide]	> 200 nM
C[C@H]1CC(Nc2ccc(-c3cc(NC(=O)C4CC4)nc4[nH]ccc34)cc2)CCN1C(=O)NCC(F)(F)F (stereo partly drawn) [Example 504, (2S)-4-((4-(6-(cyclopropanecarboxamido)-1H-pyrrolo[2,3-b]pyridin-4-yl)phenyl)amino)-2-methyl-N-(2,2,2-trifluoroethyl)piperidine-1-carboxamide]	> 200 nM
O=C(Nc1cc(-c2ccc(NC3CCN(C(=O)NCC(F)(F)F)CC3)c(F)c2)c2cc[nH]c2n1)C1CC1 [Example 505, 4-((4-(6-(cyclopropanecarboxamido)-1H-pyrrolo[2,3-b]pyridin-4-yl)-2-fluorophenyl)amino)-N-(2,2,2-trifluoroethyl)piperidine-1-carboxamide]	20 to 200 nM
C[C@H]1CC(Nc2ccc(-c3cc(NC(=O)C4CC4)nc4[nH]ccc34)cc2)CCN1C(=O)Nc1ccc(F)cc1F (stereo partly drawn) [Example 506, (2S)-4-((4-(6-(cyclopropanecarboxamido)-1H-pyrrolo[2,3-b]pyridin-4-yl)phenyl)amino)-N-(2,4-difluorophenyl)-2-methylpiperidine-1-carboxamide]	20 to 200 nM
O=C(Nc1cc(-c2ccc(NC3CCN(C(=O)c4ccncc4)CC3)cc2)c2cc[nH]c2n1)C1CC1 [Example 507, N-(4-(4-((1-isonicotinoylpiperidin-4-yl)amino)phenyl)-1H-pyrrolo[2,3-b]pyridin-6-yl)cyclopropanecarboxamide]	> 200 nM
O=C(Nc1cc(-c2ccc(NC3CCN(C(=O)c4cc(F)cc(F)c4)CC3)cc2)c2cc[nH]c2n1)C1CC1 [Example 508, N-(4-(4-((1-(3,5-difluorobenzoyl)piperidin-4-yl)amino)phenyl)-1H-pyrrolo[2,3-b]pyridin-6-yl)cyclopropanecarboxamide]	> 200 nM
O=C(Nc1cc(-c2ccc(NC3CCN(C(=O)c4ccnc(F)c4)CC3)cc2)c2cc[nH]c2n1)C1CC1 [Example 509, N-(4-(4-((1-(2-fluoroisonicotinoyl)piperidin-4-yl)amino)phenyl)-1H-pyrrolo[2,3-b]pyridin-6-yl)cyclopropanecarboxamide]	> 200 nM
